Reference: patent publication US8691222B2, “NLRR-1 antagonists and uses thereof” (Genentech, Inc., priority 2007, dated 2014)

Experiments:
NCI-H2009 cells [1] = settings: NCI-H2009, characterized as sensitive to erlotinib; cited from earlier work
[2] = system: lung tumor cell lines which endogenously express NLRR-1; settings: several lung tumor cell lines classified as resistant to erlotinib; cited from earlier work
NCI-H1781 cells = assay: Apoptosis and erlotinib synergy assay, NCI-H1781; assay type: cell-based, human; settings: NLRR-1 siRNA knockdown plus increasing concentrations of erlotinib; NCI-H1781, resistant; FIG. 8B
Method: (§1) The NLRR-1 siRNA duplex was designed and synthesized by Dharmacon (Lafayette, Colo.). The sense sequence is […] (SEQ ID NO: 11) and the antisense sequence is 5′-[…] (SEQ ID NO: 12). NCI-H2009, NCI-H647, NCI-H226, and SK-MES-1 cells were seeded at 2830/cm^2 and NCI-H520 and NCI-H1781 cells were seeded at 5660/cm^2. 100 nM of siRNA was transfected with DharmaFECT 4 for 6 to 8 hours before the transfectant was replaced with fresh media. A non-targeting siRNA sequence (Dharmacon) was used as a negative control. RT-PCR was performed on RNA extracted from 60 mm plates using RNeasy (Qiagen, Valencia, Calif.) per manufacturer's instructions. EGFR flow cytometry and immunoblot: After siRNA transfection for 24 hours, cells were harvested and stained with α-EGFR antibody conjugated to PE (BD Pharmingen) and propidium iodide for flow cytometry analysis. 10,000 events were collected and cells were gated on FSC, SSC, and PI. For immunoblot analysis, lysates were immunoblotted with α-EGFR (MBL) or α-βtubulin (Santa Cruz Biotechnology). […] Cell growth was assessed after 4 days by Cell Titer Glo (Promega, Madison, Wis.) per manufacturer's instructions. […] For apoptosis assay with starvation, cells were starved in Optimem I. For both assays, cell viability was measured with Cell Titer Glo (Promega, Madison, Wis.) and apoptosis was measured with Caspase-Glo 3/7 (Promega) after 2 days. […]

NCI-H2009 cells [3] = assay: Apoptosis and erlotinib synergy assay, NCI-H2009; assay type: cell-based, human; settings: NLRR-1 siRNA knockdown plus increasing concentrations of erlotinib; NCI-H2009, erlotinib-sensitive; FIG. 8E
Method: as §1

[4] = system: EGFR in NCI-H2009, NCI-H226, NCI-H647 cells; assay: EGFR flow cytometry and immunoblot after NLRR-1 siRNA knockdown; assay type: cell-based, human
Method: as §1

NCI-H647 cells = assay: Apoptosis and erlotinib synergy assay, NCI-H647; assay type: cell-based, human; settings: NLRR-1 siRNA knockdown plus increasing concentrations of erlotinib; NCI-H647, erlotinib-resistant; FIG. 8A
Method: as §1

NCI-H226 cells = assay: Apoptosis and erlotinib synergy assay, NCI-H226; assay type: cell-based, human; settings: NLRR-1 siRNA knockdown plus increasing concentrations of erlotinib; NCI-H226, resistant; FIG. 8C
Method: as §1

[5] = system: cell lines that endogenously expressed NLRR-1; assay: Apoptosis assay with starvation (caspase 3/7) after siRNA knockdown; assay type: cell-based, human; settings: vs non-targeting control RNA
Method: as §1, with “instructions.” for “instructions. EGFR flow cytometry and immunoblot: After siRNA transfection for 24 hours, cells were harvested and stained with α-EGFR antibody conjugated to PE (BD Pharmingen) and propidium iodide for flow cytometry analysis. 10,000 events were collected and cells were gated on FSC, SSC, and PI. For immunoblot analysis, lysates were immunoblotted with α-EGFR (MBL) or α-βtubulin (Santa Cruz Biotechnology).”
EGFR pathway activation in tumor cells has consequences for many important cellular processes, including cell survival. […] NLRR-1 was knocked down using siRNA, cells were subjected to starvation to promote apoptosis, and apoptosis was measured by caspase 3/7 activity and normalized for viable cells (FIG. 6C).

[6] = system: SK-MES cells (NLRR-1-negative); assay: Apoptosis and erlotinib synergy assay, SK-MES; assay type: cell-based, human; settings: NLRR-1 siRNA knockdown plus increasing concentrations of erlotinib, erlotinib-sensitive, FIG. 8F
Method: as §1

[7] = system: SK-MES1 lung carcinoma cell line; assay: Proliferation assay (Cell Titer Glo) after siRNA knockdown, SK-MES1; assay type: cell-based, human; settings: 100 nM siRNA; 4 days; SK-MES1, does not express NLRR-1
Method: as §1

NCI-H520 cells = assay: Apoptosis and erlotinib synergy assay, NCI-H520; assay type: cell-based, human; settings: NLRR-1 siRNA knockdown plus increasing concentrations of erlotinib; NCI-H520, resistant; FIG. 8D
Method: as §1

Row | Compound | IC50 (NCI-H2009 cells [1]) | IC50 [2] | apoptosis (caspase 3/7 activity) in presence of erlotinib (NCI-H1781 cells) | apoptosis (caspase 3/7 activity) in presence of erlotinib (NCI-H2009 cells [3]) | total EGFR protein level ([4]; NLRR-1 depleted vs control-depleted cells, immunoblot) | surface EGFR protein level ([4]; siRNA knockdown 24 hours, NCI-H2009, NCI-H226, NCI-H647, vs non-targeting siRNA, flow cytometry) | apoptosis (caspase 3/7 activity) in presence of erlotinib (NCI-H647 cells) | apoptosis (caspase 3/7 activity) in presence of erlotinib (NCI-H226 cells) | apoptosis (caspase 3/7 activity normalized for viable cells) [5] | apoptosis (caspase 3/7 activity) in presence of erlotinib [6] | proliferation (ATP-based cell viability) [7] | apoptosis (caspase 3/7 activity) in presence of erlotinib (NCI-H520 cells)
1 | C#Cc1cccc(Nc2ncnc3cc(OCCOC)c(OCCOC)cc23)c1 [erlotinib] | ≤ 2 µM | ≥ 8 µM | – | – | – | – | – | – | – | – | – | –
2 | NLRR-1 siRNA: siRNA duplex by Dharmacon; sense GCCAGAACCUGAAAUUUACUU (SEQ ID NO: 11), antisense 5′-PGUAAAUUUCAGGUUCUGGCUU (SEQ ID NO: 12) (5' phosphate on antisense, further chemistry not given here) | – | – | synergy | did not show any increased apoptosis | unchanged | increase in surface EGFR | significant increase in sensitivity | synergy | increase in apoptosis | did not show any increase in apoptosis | no significant defect in proliferation | possibly also, to a lesser degree
